Source: BindingDB's records for doi:10.1016/j.bmcl.2009.03.129 (Wyeth Research, 2009)

Target: 3-phosphoinositide-dependent protein kinase 1 (PDPK1) (Homo sapiens) (UniProt O15530)
Experiment: Inhibition of PDK1

Q: For `CCOC(=O)c1cnn2c(-c3cccc(NC(=O)c4cccc(C(F)(F)F)c4)c3)ccnc12` [ethyl 7-(3-(3-(trifluoromethyl)benzamido)phenyl)pyrazolo[1,5-a]pyrimidine-3-carboxylate], which IC50 is on record?
A: > 10 µM
